Measurements: ChEMBL document CHEMBL1146259, “Structure-activity relationships of the ultrapotent vanilloid resiniferatoxin (RTX): the homovanillyl moiety” (Bioorg Med Chem Lett, 2007)

The compounds below were run against Transient receptor potential cation channel subfamily V member 1 (Homo sapiens, UniProt Q8NER1) (assay: Agonist activity at human recombinant TRPV1 expressed in human HEK293 cells).
Assay type: functional, cell-based

Sequence of Transient receptor potential cation channel subfamily V member 1 (Q8NER1 whole entry): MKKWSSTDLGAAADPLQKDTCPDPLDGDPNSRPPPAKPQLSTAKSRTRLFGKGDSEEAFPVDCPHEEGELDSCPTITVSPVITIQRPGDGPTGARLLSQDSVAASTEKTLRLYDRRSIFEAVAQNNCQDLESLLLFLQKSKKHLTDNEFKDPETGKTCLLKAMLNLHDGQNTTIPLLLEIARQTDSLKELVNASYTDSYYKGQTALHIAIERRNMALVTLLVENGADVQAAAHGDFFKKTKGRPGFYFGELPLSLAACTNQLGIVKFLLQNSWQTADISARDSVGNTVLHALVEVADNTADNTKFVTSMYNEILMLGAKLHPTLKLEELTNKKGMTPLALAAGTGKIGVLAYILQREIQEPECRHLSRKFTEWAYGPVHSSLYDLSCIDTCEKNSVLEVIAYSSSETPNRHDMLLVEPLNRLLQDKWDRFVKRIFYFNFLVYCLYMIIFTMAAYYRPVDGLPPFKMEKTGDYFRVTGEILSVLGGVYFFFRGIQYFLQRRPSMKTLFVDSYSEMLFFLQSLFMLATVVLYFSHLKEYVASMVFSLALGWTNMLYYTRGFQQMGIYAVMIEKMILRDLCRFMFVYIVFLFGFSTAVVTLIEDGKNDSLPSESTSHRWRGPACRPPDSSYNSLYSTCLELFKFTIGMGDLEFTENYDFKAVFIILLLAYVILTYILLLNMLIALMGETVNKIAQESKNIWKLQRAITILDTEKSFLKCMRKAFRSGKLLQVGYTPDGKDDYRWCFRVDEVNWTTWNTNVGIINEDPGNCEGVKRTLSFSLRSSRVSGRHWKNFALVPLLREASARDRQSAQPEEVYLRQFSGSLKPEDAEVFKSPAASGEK

| SMILES | EC50 [nM] |
| --- | --- |
| C=C(C)[C@]12C[C@@H](C)[C@@]3(OCc4ccccc4)[C@@H](C=C(COC(=O)c4ccccc4)C[C@]4(O)C(=O)C(C)=C[C@@H]34)[C@H]1OCO2 | 25.5 |
| C=C(C)[C@]12C[C@@H](C)[C@@]3(OCc4ccccc4)[C@@H](C=C(COC(=O)c4ccc(O)c(OC)c4)C[C@]4(O)C(=O)C(C)=C[C@@H]34)[C@H]1OCO2 | 9.4 |
| C=C(C)[C@]12C[C@@H](C)[C@@]3(OCc4ccccc4)[C@@H](C=C(COC(=O)c4cc(OC)c(O)cc4I)C[C@]4(O)C(=O)C(C)=C[C@@H]34)[C@H]1OCO2 | 15.2 |
| C=C(C)[C@]12C[C@@H](C)[C@@]3(OCc4ccccc4)[C@@H](C=C(COC(=O)c4cc(I)c(O)c(OC)c4)C[C@]4(O)C(=O)C(C)=C[C@@H]34)[C@H]1OCO2 | 1.9 |
| C=C(C)[C@]12C[C@@H](C)[C@@]34O[C@](Cc5ccccc5)(O[C@@H]1[C@@H]3C=C(COC(=O)Cc1ccc(O)c(OC)c1)C[C@]1(O)C(=O)C(C)=C[C@@H]41)O2 [RESINIFERATOXIN] | 0.019 |
| C=C(C)[C@]12C[C@@H](C)[C@@]3(OCc4ccccc4)[C@@H](C=C(COC(=O)Cc4ccccc4)C[C@]4(O)C(=O)C(C)=C[C@@H]34)[C@H]1OCO2 | 4.7 |
| C=C(C)[C@]12C[C@@H](C)[C@@]3(OCc4ccccc4)[C@@H](C=C(COC(=O)CCc4cc(OC)c(O)cc4I)C[C@]4(O)C(=O)C(C)=C[C@@H]34)[C@H]1OCO2 | 7.9 |
| C=C(C)[C@]12C[C@@H](C)[C@@]3(OCc4ccccc4)[C@@H](C=C(COC(=O)CCc4ccc(O)c(OC)c4)C[C@]4(O)C(=O)C(C)=C[C@@H]34)[C@H]1OCO2 | 4.6 |
| C=C(C)[C@]12C[C@@H](C)[C@@]3(OCc4ccccc4)[C@@H](C=C(COC(=O)/C=C/c4ccccc4)C[C@]4(O)C(=O)C(C)=C[C@@H]34)[C@H]1OCO2 | 69.5 |
| C=C(C)[C@]12C[C@@H](C)[C@@]3(OCc4ccccc4)[C@@H](C=C(COC(=O)CCc4cc(I)c(O)c(OC)c4)C[C@]4(O)C(=O)C(C)=C[C@@H]34)[C@H]1OCO2 | 8.6 |
| C=C(C)[C@]12C[C@@H](C)[C@@]3(OCc4ccccc4)[C@@H](C=C(COC(=O)CCc4ccccc4)C[C@]4(O)C(=O)C(C)=C[C@@H]34)[C@H]1OCO2 | 51.5 |
| C=C(C)[C@]12C[C@@H](C)[C@@]3(OCc4ccccc4)[C@@H](C=C(COC(=O)/C=C/c4ccc(O)c(OC)c4)C[C@]4(O)C(=O)C(C)=C[C@@H]34)[C@H]1OCO2 | 1.5 |
